Measured values as given in patent publication US10526343B2, “Heterocyclic systems and pharmaceutical applications thereof” (University of Sharjah, priority 2018, dated 2020).

What was measured:
Format in all cases: cell-based
[1] = system: Staphylococcus aureus (ATCC 25923); experiment: Cell viability assay (resazurin) screening for antibacterial activity; design: key: Positive: A positive result indicates antibacterial activity expressed as growth inhibition; Negative: a negative result indicates no antibacterial activity expressed as bacterial growth at the tested concentration; details: single high concentration of 1 mg/mL
[2] = system: Enterococcus faecalis (ATCC 29212); experiment: as above; design: key: Positive: A positive result indicates antibacterial activity expressed as growth inhibition; Negative: a negative result indicates no antibacterial activity expressed as bacterial growth at the tested concentration; details: single high concentration of 1 mg/mL
[3] = system: Bacillus subtilis (environmental isolate); experiment: as above; design: key: Positive: A positive result indicates antibacterial activity expressed as growth inhibition; Negative: a negative result indicates no antibacterial activity expressed as bacterial growth at the tested concentration; details: single high concentration of 1 mg/mL
[4] = system: Escherichia coli (ATCC 25922); experiment: as above; design: key: Positive: A positive result indicates antibacterial activity expressed as growth inhibition; Negative: a negative result indicates no antibacterial activity expressed as bacterial growth at the tested concentration; details: single high concentration of 1 mg/mL
[5] = system: Pseudomonas aeruginosa (ATCC 27853); experiment: as above; design: key: Positive: A positive result indicates antibacterial activity expressed as growth inhibition; Negative: a negative result indicates no antibacterial activity expressed as bacterial growth at the tested concentration; details: single high concentration of 1 mg/mL
S. aureus (ATCC 25923) = experiment: MIC by broth microdilution; details: Staphylococcus aureus, ATCC25923
Protocol: (§1) Bacteria of the genus Staphylococcus were selected for MIC investigation due to its clinical importance. Compounds showing activity against S. aureus (ATCC 25923) were tested against 10 multidrug-resistant strains of Staphylococcus species, including: clinical isolates methicillin-resistant Staphylococcus aureus (MRSA) strains MRSA-1, MRSA-2, and MRSA-3, and environmental isolates S. saprophyticus (strains UDH-1, UDH-2, UDH-3 and UDH-4), S. haemolyticus (strains UDH-6 and UDH-7), and S. epidermidis strain UDH-5.
(§2) A broth microdilution method was used to measure MIC according to the Clinical and Laboratory Standards Institute guidelines. Two-fold serial dilutions of the test compound (8 concentrations ranged between 100-0.78 μg/mL) were tested. Two reference antibiotics were used as quality controls (ciprofloxacin and amikacin). In each experiment, solvent (DMSO) was used as a negative control, un-treated control (composing of bacteria in Mueller-Hinton broth) was used as a growth control, blank (culture media alone) was used as sterility control. The 96-well microplate with the test compounds was incubated for 20 hours at 37° C. Turbidity in wells indicated bacterial growth. […] For the definite determination of MIC, CellTiter-Blue® Cell Viability Assay (Promega, USA) was used (as above). The MIC was defined as the lowest compound concentration that prevented the color change of the Cell Viability solution (absence of bacterial growth; thus, suspension remained blue in color). For the definite determination of MIC, CellTiter-Blue® Cell Viability Assay (Promega, USA) was used (as above). To each well of the 96-well microplate, 20 μL of the Cell Viability Assay solution was added to the overnight (20 hours culture) and incubated at 37° C. for 4 hours. After the end of the incubation, pink and blue colors were used to differentiate viable from dead bacterial suspensions, respectively. The MIC was defined as the lowest compound concentration that prevented the color change.

[6] = system: MRSA-1 (clinical isolate, methicillin-resistant Staphylococcus aureus); experiment: MIC by broth microdilution; details: for MIC: Staphylococcus aureus, MRSA, clinical isolate
Protocol: (§3) Bacteria of the genus Staphylococcus were selected for MIC investigation due to its clinical importance.
as §2, with “Two reference antibiotics were used as quality controls (ciprofloxacin and amikacin).” left out

[7] = system: MRSA-2 (clinical isolate, methicillin-resistant Staphylococcus aureus); experiment: MIC by broth microdilution
Protocol: as §3
as §2, with “Two reference antibiotics were used as quality controls (ciprofloxacin and amikacin).” left out

[8] = system: MRSA-3 (clinical isolate, methicillin-resistant Staphylococcus aureus); experiment: MIC by broth microdilution
Protocol: as §3
as §2, with “Two reference antibiotics were used as quality controls (ciprofloxacin and amikacin).” left out

[9] = system: UDH-1 (environmental isolate, S. saprophyticus); experiment: MIC by broth microdilution; details: for MIC: Staphylococcus saprophyticus, environmental isolate; for times lower than MIC of ciprofloxacin: UDH-1
Protocol: as §1
(§4) All these strains were resistant to at least three antibiotics from different classes, as confirmed by a disk diffusion assay.
as §2

[10] = system: UDH-2 (environmental isolate, S. saprophyticus); experiment: MIC by broth microdilution; details: Staphylococcus saprophyticus
Protocol: as §1, §4, §2

[11] = system: UDH-3 (environmental isolate, S. saprophyticus); experiment: MIC by broth microdilution; details: for MIC: Staphylococcus saprophyticus, environmental isolate; for times lower than MIC of ciprofloxacin: UDH-3
Protocol: as §1, §4, §2

[12] = system: UDH-4 (environmental isolate, S. saprophyticus); experiment: MIC by broth microdilution; details: Staphylococcus saprophyticus
Protocol: as §1, §4, §2

[13] = system: UDH-5 (environmental isolate, S. epidermidis); experiment: MIC by broth microdilution; details: Staphylococcus epidermidis
Protocol: as §1, §4, §2

[14] = system: UDH-6 (environmental isolate, S. haemolyticus); experiment: MIC by broth microdilution; details: for MIC: Staphylococcus haemolyticus, environmental isolate
Protocol: as §1, §4, §2

[15] = system: UDH-7 (environmental isolate, S. haemolyticus); experiment: MIC by broth microdilution; details: for MIC: Staphylococcus haemolyticus, environmental isolate
Protocol: as §1, §4, §2

MIC (S. aureus (ATCC 25923)) [µg/mL]	MIC [6] [µg/mL]	MIC [7] [µg/mL]	MIC [8] [µg/mL]	MIC [9] [µg/mL]	times lower than MIC of ciprofloxacin [9]	MIC [10] [µg/mL]	MIC [11] [µg/mL]	MIC [12] [µg/mL]	MIC [13] [µg/mL]	SMILES	antibacterial activity, Staphylococcus aureus [1]	antibacterial activity, Enterococcus faecalis [2]	antibacterial activity, Bacillus subtilis [3]	antibacterial activity, Escherichia coli [4]	antibacterial activity, Pseudomonas aeruginosa [5]	MIC [14] [µg/mL]	MIC [15] [µg/mL]	further results
3.12	3.12	3.12	3.12	6.25	approximately 10 times	6.25	3.12	6.25	1.56	COC(=O)CC1COc2c(cc3c4c2CCCN4CCC3)-c2c(NC(C)(C)C)n3c(-c4cccc5c4OCO5)c(C)sc3[n+]21 (stereo not shown) [Compound 1u]	Positive	Positive	Positive	Negative	Negative	6.25	6.25	times lower than the MIC of ciprofloxacin ([6]; MRSA-1): approximately 10 times; times lower than MIC of ciprofloxacin [11]: approximately 20 times; times lower than MIC of ciprofloxacin ([14]; UDH-6): approximately 10 times; times lower than MIC of ciprofloxacin ([15]; UDH-7): approximately 10 times
3.12	6.25	6.25	6.25	12.5	–	6.25	12.5	3.12	1.56	COC(=O)CC1COc2c(cc3c4c2CCCN4CCC3)-c2c(NC(C)(C)C)n3c(-c4ccc(OC)cc4)c(-c4ccc(OC)cc4)sc3[n+]21 (stereo not shown) [Compound 1z]	Positive	Positive	Positive	Negative	Negative	12.5	12.5	–
6.25	6.25	3.12	3.12	6.25	approximately 10 times	6.25	3.12	6.25	1.56	COC(=O)CC1COc2c(cc3c4c2CCCN4CCC3)-c2c(NC(C)(C)C)n3c(-c4ccccc4)c(-c4ccccc4)sc3[n+]21 (stereo not shown) [Compound 2a]	positive antibacterial activities	Positive	Positive	Negative	Negative	6.25	12.5	times lower than MIC of ciprofloxacin [11]: approximately 20 times
3.12	6.25	6.25	6.25	12.5	–	25	6.25	6.25	1.56	COC(=O)CC1COc2c(cc3c4c2CCCN4CCC3)-c2c(NC(C)(C)C)n3c(-c4cccc5c4OCCO5)csc3[n+]21 (stereo not shown) [Compound 1p]	Positive	Positive	Positive	Negative	Negative	12.5	12.5	–
12.5	12.5	12.5	12.5	12.5	–	25	12.5	25	6.25	COC(=O)CC1COc2c(cc3c4c2CCCN4CCC3)-c2c(NC(C)(C)C)n3c4ccc(Br)cc4sc3[n+]21 (stereo not shown) [Compound 1v]	Positive	Positive	Positive	Negative	Negative	50	50	–
12.5	12.5	12.5	12.5	12.5	–	25	12.5	25	6.25	CCOC(=O)c1sc2n(c(NC(C)(C)C)c3[n+]2C(CC(=O)OC)COc2c-3cc3c4c2CCCN4CCC3)c1-c1ccccc1 (stereo not shown) [Compound 1r]	Positive	Positive	Positive	Negative	Negative	50	50	–
6.25	12.5	12.5	12.5	12.5	–	25	12.5	12.5	6.25	COC(=O)CC1COc2c(cc3c4c2CCCN4CCC3)-c2c(NC(C)(C)C)n3c(-c4ccc(NC(C)=O)cc4)csc3[n+]21 (stereo not shown) [Compound 1w]	Positive	Positive	Positive	Negative	Negative	50	50	–
3.12	6.25	3.12	3.12	6.25	approximately 10 times	6.25	6.25	6.25	3.12	COC(=O)CC1COc2c(cc3c4c2CCCN4CCC3)-c2c(NC(C)(C)C)n3c(-c4cc(OC)ccc4OC)csc3[n+]21 (stereo not shown) [Compound 1t]	Positive	Positive	Positive	Negative	Negative	12.5	12.5	–
